Experimental data: US6624176B2, “Heteroaromatic substituted amides with antagonistic activity to neurokinin 1 receptors” (Hoffmann-La Roche Inc., priority 2001, dated 2003)
pKi: −log10 of the molar value.

Tested on: not given
Assay: not given
Settings: not given

Row | melting point | Structure (SMILES)
1 | 91 to 93 °C | Cc1ccccc1-c1cc(-n2cncn2)ncc1C(=O)N(C)Cc1cc(C(F)(F)F)cc(C(F)(F)F)c1 [Example 1, N-(3,5-Bis-trifluoromethyl-benzyl)-N-methyl-4-o-tolyl-6-[1,2,4]triazol-1-yl-nicotinamide]
2 | 150 to 152 °C | Cc1ccccc1-c1cc(N2CCC(O)CC2)ncc1C(=O)N(C)Cc1cc(C(F)(F)F)cc(C(F)(F)F)c1 [Example 3, 4-Hydroxy-4′-o-tolyl-3,4,5,6-tetrahydro-2H-[1,2′]bipyridinyl-5′-carboxylic acid (3,5-bis-trifluoromethyl-benzyl)-methyl-amide]

Target: T1, human NK1 receptor (Homo sapiens, UniProt P25103)
T1 construct: expressed in transfected cells; host or cells: CHO cells infected using the Semliki virus expression system; membrane suspension
T1 sequence (P25103 whole entry): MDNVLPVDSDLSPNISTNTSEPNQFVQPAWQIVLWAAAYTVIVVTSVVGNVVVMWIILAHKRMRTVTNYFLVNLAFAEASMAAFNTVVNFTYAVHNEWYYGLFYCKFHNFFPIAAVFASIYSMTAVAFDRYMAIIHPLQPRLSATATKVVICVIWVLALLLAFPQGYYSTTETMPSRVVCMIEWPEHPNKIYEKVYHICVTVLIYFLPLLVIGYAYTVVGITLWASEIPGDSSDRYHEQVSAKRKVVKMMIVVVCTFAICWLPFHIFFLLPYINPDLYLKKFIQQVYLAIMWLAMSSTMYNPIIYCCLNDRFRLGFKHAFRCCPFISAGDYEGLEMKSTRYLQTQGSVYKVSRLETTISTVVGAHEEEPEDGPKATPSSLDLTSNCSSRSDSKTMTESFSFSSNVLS
Assay: NK1 receptor binding assay, [3H]substance P displacement
Settings: affinity to the NK-1 receptor; human NK1 receptors in CHO cells; [3H]substance P 0.6 nM
Description: The affinity of test compounds for the NK1 receptor was evaluated at human NK1 receptors in CHO cells infected with the human NK1 receptor (using the Semliki virus expression system) and radiolabelled with [^3H]substance P (final concentration 0.6 nM). Binding assays were performed in HEPES buffer (50 mM, pH 7.4) containing BSA (0.04%) leupeptin (8 μg/ml), MnCI2 (3 mM) and phosphoramidon (2 μM). Binding assays consisted of 250 μl of membrane suspension (1.25×10^5 cells/assay tube), […] of buffer of displacing agent and 125 μl of [^3H]substance P. Displacement curves were determined with at least seven concentrations of the compound. The assay tubes were incubated for 60 min at room temperature after which time the tube contents were rapidly filtered under vacuum through GF/C filters presoaked for 60 min with PEI (0.3%) with 2×2 ml washes of HEPES buffer (50 mM, pH 7.4). The radioactivity retained on the filters was measured by scintillation counting. All assays were performed in triplicate in at least 2 separate experiments.

Row | pKi | Structure (SMILES)
3 | 8.40 | Cc1ccccc1-c1cc(-n2cncn2)ncc1C(=O)N(C)Cc1cc(C(F)(F)F)cc(C(F)(F)F)c1 [Example 1, N-(3,5-Bis-trifluoromethyl-benzyl)-N-methyl-4-o-tolyl-6-[1,2,4]triazol-1-yl-nicotinamide]
4 | 8.87 | Cc1ccccc1-c1cc(NCCO)ncc1C(=O)N(C)Cc1cc(C(F)(F)F)cc(C(F)(F)F)c1 [Example 2, N-(3,5-Bis-trifluoromethyl-benzyl)-6-(2-hydroxy-ethylamino)-N-methyl-4-o-tolyl-nicotinamide]
5 | 8.91 | Cc1ccccc1-c1cc(N2CCC(O)CC2)ncc1C(=O)N(C)Cc1cc(C(F)(F)F)cc(C(F)(F)F)c1 [Example 3, 4-Hydroxy-4′-o-tolyl-3,4,5,6-tetrahydro-2H-[1,2′]bipyridinyl-5′-carboxylic acid (3,5-bis-trifluoromethyl-benzyl)-methyl-amide]
6 | 9.03 | Cc1ccccc1-c1cc(N2CCC(OCCO)CC2)ncc1C(=O)N(C)Cc1cc(C(F)(F)F)cc(C(F)(F)F)c1 [Example 4, 4-(2-Hydroxy-ethoxy)-4′-o-tolyl-3,4,5,6-tetrahydro-2H-[1,2′]bipyridinyl-5′-carboxylic acid (3,5-bis-trifluoromethyl-benzyl)-methyl-amide]
7 | 9.24 | Cc1ccccc1-c1cc(N2CC[C@@H](O)C2)ncc1C(=O)N(C)Cc1cc(C(F)(F)F)cc(C(F)(F)F)c1 [Example 5, (R)-N-(3,5-Bis-trifluoromethyl-benzyl)-6-(3-hydroxy-pyrrolidin-1-yl)-N -methyl-4-o-tolyl-nicotinamide]
8 | 9.18 | CN(Cc1cc(C(F)(F)F)cc(C(F)(F)F)c1)C(=O)c1cnc(N2CCC(O)CC2)cc1-c1ccccc1Cl [Example 6, 4′-(2-Chloro-phenyl)-4-hydroxy-3,4,5,6-tetrahydro-2H-[1,2′]bipyridinyl-5′-carboxylic acid (3,5-bis-trifluoromethyl-benzyl)-methyl-amide]
9 | 9.16 | Cc1ccccc1-c1cc(NCCO)ncc1N(C)C(=O)C(C)(C)c1cc(C(F)(F)F)cc(C(F)(F)F)c1 [Example 7, 2-(3,5-Bis-trifluoromethyl-phenyl)-N-[6-(2-hydroxy-ethylamino)-4-o-toyl-pyridin-3-yl]-N-methyl-isobutyramide]
10 | 9.14 | CN(C(=O)C(C)(C)c1cc(C(F)(F)F)cc(C(F)(F)F)c1)c1cnc(NCCO)cc1-c1ccccc1Cl [Example 8, 2-(3,5-Bis-trifluofomethyl-phenyl)-N-[4-(2-chloro-phenyl)-6-(2-hydroxy-ethylamino)-pyridin-3-yl]-N-methyl-isobutyramide]
11 | 8.83 | Cc1ccccc1-c1cc(N2C=COCC2)ncc1N(C)C(=O)C(C)(C)c1cc(C(F)(F)F)cc(C(F)(F)F)c1 [Example 9, 2-(3,5-Bis-trifluoromethyl-phenyl)-N-[6-(2,3-dihydro-[1,4]oxazin-4-yl)-4-o-tolyl-pyridin-3-yl]-N-methyl-isobutyramide]
12 | 8.60 | CC(=O)Nc1cc(-c2ccccc2C)c(N(C)C(=O)C(C)(C)c2cc(C(F)(F)F)cc(C(F)(F)F)c2)cn1 [Example 10, N-(6-Acetylamino-4-o-tolyl-pyridin-3-yl)-2-(3,5-bis-trifluoromethyl-phenyl)-N-methyl-isobutyramide]
13 | 8.71 | CC(=O)N(C)c1cc(-c2ccccc2C)c(N(C)C(=O)C(C)(C)c2cc(C(F)(F)F)cc(C(F)(F)F)c2)cn1 [Example 11, N-[6-(Acetyl-methyl-amino)-4-o-tolyl-pyridin-3-yl]-2-(3,5-bis-trifluoromethyl-phenyl)-N-methyl-isobutyramide]
14 | 8.65 | Cc1ccccc1-c1cc(NC(=O)C2CC2)ncc1N(C)C(=O)C(C)(C)c1cc(C(F)(F)F)cc(C(F)(F)F)c1 [Example 12, Cyclopropanecarboxylic acid (5-{[2-(3,5-bis-trifluoromethyl-phenyl)-2-methyl-propionyl]-methyl-amino}-4-o-tolyl-pyridin-2-yl)-amide]
15 | 8.87 | Cc1ccccc1-c1cc(N(C)C(=O)C2CC2)ncc1N(C)C(=O)C(C)(C)c1cc(C(F)(F)F)cc(C(F)(F)F)c1 [Example 13, Cyclopropanecarboxylic acid (5-{[2-(3,5-bis-trifluoromethyl-phenyl)-2-methyl-propionyl]-methyl-amino}-4-o-tolyl-pyridin-2-yl)-methyl-amide]
16 | 8.65 | Cc1ccccc1-c1cc(-n2ccnc2)ncc1N(C)C(=O)C(C)(C)c1cc(C(F)(F)F)cc(C(F)(F)F)c1 [Example 14, 2-(3,5-Bis-trifluoromethyl-phenyl)-N-(6-imidazol-1-yl-4-o-tolyl-pyridin-3-yl)-N-methyl-isobutyramide]
